Test results taken from US4190646A, “Polypeptide compositions and methods” (Sloan-Kettering Institute for Cancer Research, priority 1979, dated 1980).
Where a SMILES comes first, the peptide text is derived from it.

Assays:
CR^+ B cells = experiment: induction in vitro of CR+ B cell differentiation from CR- B cell precursors; format: cell-based, nu/nu mice; conditions: concentrations of 0.01 ng to 10 μg/ml
Protocol: To determine the activity and characteristics of the polypeptide, determinations were carried out on healthy 5-6 weeks nu/nu mice of both sexes, the mice being bred on a BALB/c background (thymocytes expressing Thy-1.2 surface antigen) and maintained under conventional conditions. For the antisera, anti Thy-1.2 sera were prepared in Thy-1 congenic mice.
For the induction in vitro of Thy-1^+ T cells or CR^+ B cell differentiation, the induction of thymocyte differentiation from prothymocytes in vitro was performed as described by Komuro and Boyse, (Lancet, 1, 740, 1973), using the acquisition of Thy-1.2 as a marker of T cell differentiation. The induction of CR^+ B cell differentiation from CR^- B cell precursors in vitro was performed under similar conditions using as the assay criterion, the capacity of CR^+ cells to bind sheep erythrocytes coated with subagglutinating quantities of rabbit antibody and nonlytic complement. Spleen cell populations from healthy nu/nu mice fractionated on discontinuous bovine serum albumin gradients were used as the source of both precursor types (Thy-1^- and CR^-) because they have few or no Thy-1^+ cells and low numbers of CR^+ cells.

[1] = test system: neuromuscular transmission; experiment: neuromuscular transmission assessed by electromyography after injection; format: in vivo; conditions: mice, single injection of 10-100 μg peptide in saline intraperitoneally, 24 hours later
Protocol: To determine the effect of this peptide on neuromuscular transmission, mice were injected with 10-100 μg peptide in N saline intraperitoreally. Twenty-four hours later, neuromuscular transmission was assessed by electromyography as described in Lancet, Vol. 12, pps. 256-259, 1975.

[2] = activity compared with the basic pentapeptide of Example I, in Twomey solution; conditions: 1 μg/ml in 89% Twomey solution

| SMILES | induction of differentiation of CR+ B cells (CR^+ B cells) | neuromuscular transmission impairment by electromyography [1] | maximum activity compared with the basic pentapeptide of Example I [2] [%] | minimum activity compared with the basic pentapeptide of Example I [2] [%] |
| --- | --- | --- | --- | --- |
| CC(C)[C@H](NC(=O)[C@H](CC(=O)O)NC(=O)[C@H](CCCCN)NC(=O)[C@@H](N)CCCNC(=N)N)C(=O)N[C@@H](Cc1ccc(O)cc1)C(=O)O [Example I, H2 N-ARG-LYS-ASP-VAL-TYR-COOH] (H-RKDVY-OH) | did not induce | detectable neuromuscular impairment | – | – |
| CC(C)[C@H](NC(=O)[C@H](CC(=O)O)NC(=O)[C@H](CCCCN)NC(=O)[C@@H](N)CCCNC(=N)N)C(=O)N[C@@H](Cc1ccc(O)cc1)C(N)=O [Example IV, H2 N-ARG-LYS-ASP-VAL-TYR-CONH2] (H-RKDVY-NH2) | – | – | 105 | 70 |
